Results from patent US8835617B2, “Polynucleotides encoding a human TRIM-Cyp fusion polypeptide, compositions thereof, and methods of using same” (priority 2008, dated 2014).
“Also recorded” adds a separate entry of the source.

Legend:
HIV-1NL4-3-IRES-GFP-Nef = assay: Single-cycle cell-to-cell spreading assay, 293T donors and Jurkat targets; type: cell-based; conditions: protein expressed in 293T donor cells, 2 hours co-culture
Source text: The mechanism underlying these observations has not yet been determined. […] This would implicate T5-mediated restriction both at post-entry and at a much later step in the viral life cycle (Sakuma et al., 2007; Zhang et al., 2008a). […] To assess the effects of donor and target cell T5Cyp on cell-to-cell spread of HIV-1, a single-cycle cell-to-cell spreading assay for HIV-1 infection was designed. 293T donor cell lines expressing control or indicated T5Cyp were transfected with HIV-1NL4-3-IRES-GFP-Nef provirus and supernatant was harvest during the first 48 hours to measure production of virus by RT activity. […] At the indicated time points dextran sulfate was added to the co-culture to block further infection and cells were harvested. 48 hours later the percentage of infected target Jurkat T cells was measured by flow cytometry (FIG. 53A). The magnitude of HIV-1 restriction in single cycle assays using cell-free virus is shown for recipient Jurkat T cell lines and donor 293 T cell lines is shown (FIG. 53B).

HIV-1-G89V = HIV-1-G89V CA mutant vector challenge of CRFK cells; type: cell-based
Source text: (§1) Most HIV-1 plasmids and vectors have been described previously (Berthoux et al., 2004). pNL4-3 contains a complete infectious HIV-1 provirus. pNL4-3-R5 bears the V3 loop of the CCR5-tropic 92TH014-2 HIV-1 strain (Papkalla et al., 2002). To generate pNL4-3-GFP-IRES-Nef, enhanced green fluorescent protein (eGFP) and the ECMV (encephalomyocarditis virus) IRES (internal ribosome entry site) were inserted upstream of nef pNLΔenvGFP is pNL4-3 with an env-inactivating mutation and eGFP in place of nef. CSGW is an HIV-1 vector expressing eGFP under the control of the spleen focus forming virus (SFFV) promoter. pFUPI, was engineered from pFUW (Lois et al., 2002) and uses the ubiquitin promoter to drive expression of a puromycin resistance cassette followed by ECMV IRES-T5. pAIG uses the SFFV promoter to drive expression of T5 followed by IRES-eGFP. In pscALPS, the SFFV promoter drives expression of T5 and the human CypA promoter drives expression of eGFP. For three-component vector production, HIV-1 gag and pol were expressed using either psPAX2, p8.9NΔSB, p8.9NΔSB-G89V, or p8.9NΔSB-V86P/H87Q/I91V/M96I. p8.9NΔSB-V86P/H87Q/I91V/M96I is p8.9NΔSB with the V86P/H87Q/I91V/M96I mutation (Chatterji et al., 2005) introduced in CA. […] For biochemistry, hT5Cyps were cloned into the p3xFLAG-CMV-7.1 expression vector (Sigma) and HIV-1 CA was expressed as a GST-fusion using the EF1α promoter.

HIV-1NL4-3-GFP-IRES-Nef [1] = assay: Spreading infection after electroporation of proviral DNA into Jurkat T cell lines; type: cell-based
Source text: Studies were designed to see whether a similar system could be exploited in order to select for a T5Cyp-resistant virus. One approach was to introduce HIV-1NL4-3-GFP-IRES-Nef proviral DNA into Jurkat T cell lines expressing T5 or control by electroporation, to ensure that spreading infection was initiated by cell associated virus in the absence of free virus. […] Again no T5Cyp-resistant HIV-1 could be derived in this experimental setting.

FIVPET = FIVPET GFP vector challenge of CRFK cells expressing T5 proteins; type: cell-based; conditions: in words
Source text: (§2) Most HIV-1 plasmids and vectors have been described previously (Berthoux et al., 2004). pNL4-3 contains a complete infectious HIV-1 provirus. pNL4-3-R5 bears the V3 loop of the CCR5-tropic 92TH014-2 HIV-1 strain (Papkalla et al., 2002). To generate pNL4-3-GFP-IRES-Nef, enhanced green fluorescent protein (eGFP) and the ECMV (encephalomyocarditis virus) IRES (internal ribosome entry site) were inserted upstream of nef pNLΔenvGFP is pNL4-3 with an env-inactivating mutation and eGFP in place of nef. […] For biochemistry, hT5Cyps were cloned into the p3xFLAG-CMV-7.1 expression vector (Sigma) and HIV-1 CA was expressed as a GST-fusion using the EF1α promoter.
(§3) 2×10^4 adherent cells/well or 8×10^4 suspension cells/well were plated in 48-well plates (Nunc) for challenge with single-cycle GFP reporter vectors that were titered as indicated. GFP synthesis was assessed by flow cytometry 48 hrs post-infection. […] For infection of 10^6 primary CD4^+ T cells or macrophages, 15 ng p24/10^6 cells of a CXCR4- or CCR5-tropic HIV-1NL4-3 stock was used, and infection was monitored by assessing the accumulation of RT activity in the supernatant (Sayah et al., 2004). FACSCalibur, Cellquest Pro (Becton Dickinson), and FlowJo software (Treestar, Inc.) were used to record and analyze fluorescence. […]

Jurkat T cells = assay: Growth and cell surface markers of transduced Jurkat T cells; conditions: CD4, CXCR4, CD11a, CD18, ICAM3, MHC-I
[2] = tested on: V86P/H87Q/I91V/M96I HIV-1; assay: V86P/H87Q/I91V/M96I HIV-1 CA variant vector challenge; type: cell-based
Source text: as §1

SIVAGMtan = SIVAGMtan GFP vector challenge of CRFK cells expressing T5 proteins; type: cell-based; conditions: in words
Source text: as §2, §3

HIV-1NL4-3-GFP-IRES-Nef [3] = assay: Spreading infection of Jurkat T cells with replication-competent HIV-1; type: cell-based; conditions: for HIV-1 replication in spreading infection: in words, Jurkat, up to two months; for isolation of resistant HIV-1: wide range of inocula
Protocol: Jurkat T cells stably transduced with T5-expression vectors were infected with replication-competent HIV-1NL4-3-GFP-IRES-Nef.
(§4) 2×10^4 adherent cells/well or 8×10^4 suspension cells/well were plated in 48-well plates (Nunc) for challenge with single-cycle GFP reporter vectors that were titered as indicated. GFP synthesis was assessed by flow cytometry 48 hrs post-infection. For spreading infection, 10^6 Jurkat cells were infected with 1 to 15 ng p24/10^6 cells of HIV-1NL4-3-GFP-IRES-Nef. Cells were split every 3 days, fixed in 0.5% paraformaldehyde/PBS, and assayed for GFP synthesis by flow cytometry. For infection of 10^6 primary CD4^+ T cells or macrophages, 15 ng p24/10^6 cells of a CXCR4- or CCR5-tropic HIV-1NL4-3 stock was used, and infection was monitored by assessing the accumulation of RT activity in the supernatant (Sayah et al., 2004). FACSCalibur, Cellquest Pro (Becton Dickinson), and FlowJo software (Treestar, Inc.) were used to record and analyze fluorescence. 1-5×10^5 events were acquired for analysis.
as §4, with “cytometry.” for “cytometry. For infection of”, “or macrophages were infected with” for “or macrophages,”, “of CXCR4” for “of a CXCR4-”, “HIV-1NL4-3 stocks, or with low passage, primary isolates HIV-1DH12” for “HIV-1NL4-3 stock was used,”, “and HIV-1132W, (Olivier Schwartz, Pasteur Institute, Paris). Infection” for “and infection”, “supernatant (7).” for “supernatant (Sayah et al., 2004).”

HIV-1 = tested on: HIV-1
Protocol: CRFK, feline kidney fibroblast cells, lack endogenous T5 and are commonly used in the field as they have large T5-restriction phenotypes in single-cycle assays.
as §4
as §4, with “cytometry.” for “cytometry. For infection of”, “or macrophages were infected with” for “or macrophages,”, “of CXCR4” for “of a CXCR4-”, “HIV-1NL4-3 stocks, or with low passage, primary isolates HIV-1DH12” for “HIV-1NL4-3 stock was used,”, “and HIV-1132W, (Olivier Schwartz, Pasteur Institute, Paris). Infection” for “and infection”, “supernatant (7).” for “supernatant (Sayah et al., 2004).”

| Substance | infection of control target cells lower than with empty vector donors (HIV-1NL4-3-IRES-GFP-Nef) | restriction of HIV-1-G89V (HIV-1-G89V) | course of infection after electroporation of provirus (HIV-1NL4-3-GFP-IRES-Nef [1]) | restriction of FIVPET (FIVPET) | growth kinetics and cell surface marker levels vs control vector (Jurkat T cells) | block of V86P/H87Q/I91V/M96I HIV-1 [2] | restriction of SIVAGMtan (SIVAGMtan) | HIV-1 replication in spreading infection (HIV-1NL4-3-GFP-IRES-Nef [3]) | isolation of resistant HIV-1 (HIV-1NL4-3-GFP-IRES-Nef [3]) | potency relative to hT5αR323-332 and hT5αR332P (HIV-1; CRFK cells) | restriction of HIV-1 relative to rhT5α (HIV-1; CRFK cells) | block of HIV-1 infection relative to hT5Cyp (HIV-1; CRFK cells, low multiplicities of infection) | HIV-1 restriction activity (HIV-1; in words, CRFK cells) | inhibition of HIV-1 (HIV-1; single-cycle infection of CRFK cells) |
| --- | --- | --- | --- | --- | --- | --- | --- | --- | --- | --- | --- | --- | --- | --- |
| hT5Cyp: human TRIM5α fused at serine 322 to human cyclophilin A, SEQ ID NO:12 | 10 fold | failed to restrict HIV-1-G89V | the infection was self-limiting | blocked comparably | grew with the same kinetics and expressed similar levels | blocked infection by viruses bearing this sequence as efficiently as they block standard HIV-1 clones | significantly better than AoT5Cyp at low MOI | No HIV-1 replication was detected; also recorded: significantly greater anti-HIV-1 activity than a chimeric human/rhesus monkey TRIM5α; also recorded: HIV-1 replication was not detected; also recorded: superior anti-HIV-1 activity | could not be isolated | ~10 fold | ~10 fold | – | – | – |
| AoT5Cyp: Aotus (owl monkey) TRIM5-cyclophilin A fusion protein [reference compound] | 3 fold | failed to restrict HIV-1-G89V | the infection was self-limiting | blocked comparably | grew with the same kinetics and expressed similar levels | blocked infection by viruses bearing this sequence as efficiently as they block standard HIV-1 clones | restricted all four lentiviruses | No HIV-1 replication was detected; also recorded: HIV-1 replication was not detected | could not be isolated | – | – | about 10 fold | restricted all four lentiviruses | ~1000 fold |
